In patent US10035819B2, “PPAR agonists and methods of use thereof” (The Salk Institute for Biological Studies, priority 2014, dated 2018):
In brackets after ≈: the same amount, converted by molar mass.

Tests used:
[1] = Pharmacokinetics in male CD-1 mice (i.v. and p.o.); format: in vivo
Method: The oral bioavailability and serum half lives of PPARδ ligands were compared in mice. The pharmacokinetics of PPARδ ligands delivered orally (10 mg/kg p.o.) and intravenously (3 mg·kg i.v.) were determined by mass spectrometry.
In this example, the PK profile of several PPARδ agonists disclosed herein in male CD-1 mice or Wistar rats was determined. Similar methods can be used to analyze other compounds provided herein.
(quantity sufficient ie made up to a final volume of 100% with water). All compounds were separately administered to CD-1 mice at 3 mg/kg iv or 10 mg/kg po.
(§1) The concentration of the compound in plasma was determined, as illustrated in FIGS. 9A-9E.

[2] = format: in vitro ADME
[3] = Pharmacokinetics in male Wistar rats (i.v. and p.o.); format: in vivo
Method: In this example, the PK profile of several PPARδ agonists disclosed herein in male CD-1 mice or Wistar rats was determined. Similar methods can be used to analyze other compounds provided herein. […]
as §1

FGF1a promoter = test: Luciferase reporter assay of the FGF1a promoter co-transfected with PPARδ; format: cell-based; conditions: with ligand
Source text: Increased vasculature is one of the hallmarks of oxidative myofibers, which facilitates introduction of immune cells and also supports increased number of satellite cells.

[4] = Solubility (kinetic, thermodynamic); format: physicochemical
[5] = test system: C57BL6J mice, freeze burn injury to the TA muscle; test: Acute pharmacological activation of PPARδ with oral GW501516, freeze burn injury to the TA muscle; format: in vivo
Method: A stainless steel 1 g weight (Mettler-Toledo) equilibrated to the temperature of dry ice was placed directly on the exposed TA for 10 seconds. Following the thermal injury, incision was closed using VetBond (3M). All injury procedures were performed on the left leg, and the right leg was used as control.
Sterile 1% w/v Evans Blue dye in PBS was intraperitoneally injected at 1% volume relative to the body mass of an animal. 7 hours after the injection, injured TA muscles were harvested and snap-frozen by isopentane quenching in liquid nitrogen. Frozen sections were cut in 10 μm thickness, fixed in ice-cold acetone, dipped in xylene and mounted with DPX. Proportion of the stained area over the total area was measured using ImageJ software.
50 mg/kg body weight of BrdU (Sigma) was injected intraperitoneally as solution of 10 mg/mL BrdU in saline. TA muscles were harvested at 7 days after injury and processed for paraffin sections as described above. BrdU incorporation was visualized using the BrdU Labeling and Detection Kit I (Roche) and BrdU+ nuclei were counted and represented as a proportion of total nuclei in a field.
Whole or partial tissues were homogenized by Polytron probe homogenizer in Trizol reagent (Invitrogen). Total RNA was extracted from the homogenates according to the manufacturer's protocol. 1 μg of DNase-treated total RNA was reverse transcribed using Superscript II Reverse Transcriptase (Invitrogen) according to the manufacturer's instructions. cDNAs were diluted 1/40 with ddH2O and used as templates in RT-QPCR reactions with SYBRGreenER qPCR SuperMix detection system (Invitrogen). Samples were prepared in technical triplicates and relative mRNA levels were calculated by using the standard curve methodology and normalized against GAPDH mRNA levels in the same samples.

[6] = male, mouse, iv, CD-1 mice, 3 mg/Kg i.v., plasma
[7] = male, mouse, po, CD-1 mice, 10 mg/Kg p.o., plasma
[8] = rat, iv, male Wistar rats, 3 mg/Kg i.v., plasma
[9] = rat, po, male Wistar rats, 10 mg/Kg p.o., plasma

Cc1cc(SCc2sc(-c3ccc(C(F)(F)F)cc3)nc2C)ccc1OCC(=O)O [GW501516]
Kel ([1]; CD-1 mice, 3 mg/Kg i.v., plasma): 0.11 h⁻¹
F ([1]; CD-1 mice, 10 mg/Kg p.o. vs 3 mg/Kg i.v.): 82.1%
clearance ([1]; male, CD-1, mouse, plasma, iv, 3 mg/kg): 4.42 mL/min/kg
Vd ([1]; male, CD-1, mouse, plasma, iv, 3 mg/kg, CD-1 mice, 3 mg/Kg i.v., plasma, read-out: Vss): 1.71 L/kg
Vd ([1]; male, CD-1, mouse, plasma, iv, 3 mg/kg, CD-1 mice, 3 mg/Kg i.v., plasma, read-out: Vz): 2.46 L/kg
half-life ([1]; male, CD-1, mouse, plasma, iv, 3 mg/kg, read-out: Beta T1/2 (converted)): 6.44 h
half-life ([1]; male, CD-1, mouse, plasma, po, 10 mg/kg, read-out: T1/2 (converted)): 5.98 h
AUC(0-inf) [1, 6]: 11300 ng·h/mL
C0 [1, 6]: 5560 ng/mL
MRT [1, 6]: 4.96 h
AUC(0-inf) [1, 7]: 31000 ng·h/mL
Cmax [1, 7]: 3290 ng/mL
Tmax [1, 7]: 2 h
% Parent remained at 15 min, MLM [2]: 93/76%
% Parent remained at 60 min, MLM [2]: 93/76%
Kel ([3]; male Wistar rats, 3 mg/Kg i.v., plasma): 0.09 h⁻¹
F ([3]; male Wistar rats, 10 mg/Kg p.o. vs 3 mg/Kg i.v.): ~100%
clearance ([3]; male, Wistar, rat, plasma, iv, 3 mg/kg): 5.1 mL/min/kg
Vd ([3]; male, Wistar, rat, plasma, iv, 3 mg/kg, male Wistar rats, 3 mg/Kg i.v., plasma, read-out: Vss): 1.99 L/kg
Vd ([3]; male, Wistar, rat, plasma, iv, 3 mg/kg, male Wistar rats, 3 mg/Kg i.v., plasma, read-out: Vz): 3.58 L/kg
half-life ([3]; male, Wistar, rat, plasma, iv, 3 mg/kg, read-out: Beta T1/2 (converted)): 8.07 h
half-life ([3]; male, Wistar, rat, plasma, po, 10 mg/kg, read-out: T1/2 (converted)): 6.21 h
AUC(0-inf) [3, 8]: 9960 ng·h/mL
C0 [3, 8]: 5280 ng/mL
MRT [3, 8]: 4.3 h
AUC(0-inf) [3, 9]: 35100 ng·h/mL
Cmax [3, 9]: 6920 ng/mL
Tmax [3, 9]: 2 h
FGF1a promoter luciferase reporter, PPRE-dependent (FGF1a promoter): activation
solubility kinetic ([4]; kinetic from dmso stock): 195 µM (≈ 88.4 µg/mL)
solubility thermodynamic ([4]; thermodynamic from solid): 246 µM (≈ 112 µg/mL)
Evans Blue dye uptake, stained proportion of muscle cross sectional area (CSA) ([5]; 5 mg/kg orally, 4 days prior to and 5 days after freeze burn injury, 5 days after injury (vehicle 7.6%)): 4.9%
initial inflammatory responses ([5]; 12 hours after injury, with and without ligand): similar
TNFα and macrophage marker F4/80 expression by QPCR ([5]; 3 days post injury, TA muscle): significant reduction
reduction in damaged muscle fibers ([5]; 5 days after the injury, vs vehicle): 34.7%
Notch1 and Hes1 expression by QPCR ([5]; 9 day treatment): increases
PPARδ target genes (PDK4, CPT1b, catalase) in the TA muscle by QPCR ([5]; 9 day treatment, 5 mg/kg orally): Up-regulation
number of quiescent satellite cells ([5]; 9 days or 4 weeks of ligand treatment): not significantly affected
proliferative cell number (BrdU) ([5]; BrdU injection at 48 hours after the injury): marked increase
